Measured values: US20230097992A1, “BIVALENT EGF FUSION TOXINS” (The Regents of the University of Colorado, a body corporate, priority 2020, published 2023)
“And” between values parts separate entries of the source, which are not always exact repeats. Identical values can stand only once.

Tests used:
[1] = system: HNSCC Cal27 subcutaneous xenografts; assay: Flank-xenograft solid tumor-bearing NSG mouse model; assay type: in vivo, NSG mice; settings: Subcutaneous xenograft model; fusion toxin or DT390 50 μg/kg IP, erlotinib 20 mg/kg gavage, once daily for 10 days from day 4
Description: FIGS. 6A-6D presents the data from in vivo efficacy analysis of the human EGF fusion toxins against subcutaneous xenografts in NSG mice from two animal studies. FIG. 6A depicts the survival curve for NSG mice injected with Cal27 cells. […] FIGS. 6B-D depict tumor volume and weight data from the second study performed with a second cohort of NSG mice. […] Mice were euthanized on day 14 after tumor cell injection, when the first mouse in the DT390 group reached the end point. FIG. 6B: Tumor volumes were measured periodically, and the growth kinetics of the four groups were plotted. FIG. 6B depicts the tumor growth kinetics for a period of 14 days. FIG. 6C presents a bar graph representing the tumor weights at day 14. FIG. 6D depicts images of harvested tumors on day 14. Scale bar: 1 cm. FIGS. 6A-6C: *P<0.05; **P<0.01; ***P<0.001; ****P<0.0001; ns: not significant. The P-values for the survival curves in FIG. 6A were calculated using the Mantel-Cox log-rank test and that for the comparisons in FIGS. 6B and C were calculated using the two-tailed Student t-test (GraphPad Prism 9.0.0).
(§1) HNSCC tumor cells were injected via the following routes: 1) Flank-xenograft solid tumor model: eight million human HNSCC Cal27 tumor cells were subcutaneously injected into the right flank at day 0. The tumor-bearing mice were randomly divided into the four experimental groups when the tumors were palpable at day 3. The tumor volume was measured using digital vernier calipers every 3 days and calculated according to the formula: volume (mm^3)=(length×width×width)/2. 2) Tongue-orthotopic solid tumor model: eight million human HNSCC Cal27 tumor cells in 50 μl DMEM were injected into the tongue at day 0 following isoflurane anesthesia and the tumor-bearing mice were randomly divided into the planned four experimental groups at day 3. 3) Experimental metastasis model: one million human HNSCC Cal27 tumor cells in 200 μl DMEM were intravenously injected at day 0 via tail vein and the tumor-bearing mice were randomly divided into the four experimental groups at day 3.
(§2) Mono-EGF-IT (mEGF-IT), bEGF-IT, or DT390 was intraperitoneally injected (IP) starting at day 4 at 50 μg/kg, once daily for 10 consecutive days. […] The injected animals were observed daily for signs and symptoms of illness and scored at least twice weekly based on the parameters as previously reported (Peraino et al. (2013), J. Immunol. Methods 398-399, 33-43, which is hereby incorporated by reference in its entirety; Wang et al., 2015). The animals were humanely euthanized when the score exceeded the limit or the animal lost more than 15% of its pre-injection body weight. In addition, to assess whether the fusion toxins are toxic to the animals, NSG mice injected with the fusion toxins only were also included as control.
In vivo efficacy of the mEGF-IT and bEGF-IT against HNSCC was assessed using three immunodeficient tumor-bearing NSG mouse models. The first in vivo efficacy model was a flank-xenograft solid tumor-bearing NSG mouse model. Eight million Cal27 tumor cells were injected subcutaneously (SQ) into the right flank at day 0. The EGF fusion toxins were injected intraperitoneally (IP) starting on day 4 at 50 μg/kg daily for 10 consecutive days. […] The reduction of the tumor volumes, weights and sizes (FIGS. 6B-6D) were all consistent with the median survival prolongation.

[2] = system: HNSCC Cal27 tongue-orthotopic tumors; assay: Tongue-orthotopic tumor-bearing NSG mouse model; assay type: in vivo, NSG mice; settings: Tongue orthotopic model; fusion toxin or DT390 50 μg/kg IP, erlotinib 20 mg/kg gavage, once daily for 10 days from day 4
Description: FIGS. 7A-7C presents the data from two animal studies of in vivo efficacy analysis of the human EGF fusion toxins against tongue squamous cell carcinomas (SCCs) in NSG mice. FIG. 7A presents the data from in vivo efficacy analysis of the human EGF fusion toxins using human EGFR-positive HNSCC Cal27 tongue-orthotopic tumor-bearing NSG mouse model. Eight million human EGFR-positive HNSCC Cal27 cells were injected into the tongue on day 0. Mice were injected intraperitoneally (IP) with the EGF fusion toxin or DT390 at 50 μg/kg, starting on day 4, once daily for 10 consecutive days. […] The schedule of the fusion toxin and tumor cell injection is pictured in the schematic below the survival curve. The vertical arrows indicate the days on which the tumor cells or the fusion toxins were injected. *P<0.05; **P<0.01; ***P<0.001; ****P<0.0001; ns: not significant.
FIG. 7B presents the data from a further in vivo efficacy analysis of the human EGF fusion toxins. […] The mice were euthanized on day 8 after tumor cell injection when the first mouse in the DT390 group reached the end point. The photograph depicts tongue squamous cell carcinomas (SCCs) (circled by the black dotted lines). Scale bar: 1 cm. FIG. 7C presents the FIG. 7B tumor volume comparison of the treatment groups. *P<0.05; **P<0.01
as §1, §2
To assess the in vivo efficacy of the human EGF fusion toxins to the xenograft tumors in the head and neck area, a tongue-orthotopic tumor-bearing NSG mouse model was used as a second efficacy model. Eight million HNSCC Cal27 cells were injected into the tongue at day 0. The EGF fusion toxins were injected intraperitoneally (IP) starting on day 4 at 50 μg/kg daily for 10 consecutive days. Since the resulting tongue-orthotopic tumors severely affected the animal's eating and drinking, animals were euthanized earlier. Therefore, the median survival prolongation was not as impressive as that observed in the flank-xenograft solid tumor-bearing NSG mouse model. […] To further characterize the effect of the EGF fusion toxins on tumor volume, the orthotopic tongue SCC model study was repeated, and the mice were euthanized 8 days after tumor cell inoculation.

[3] = system: HNSCC Cal27 cells injected intravenously (lung metastases); assay: Experimental lung metastasis NSG mouse model; assay type: in vivo, NSG mice; settings: for Median survival time: Lung metastasis model, fusion toxin or DT390 50 μg/kg IP, erlotinib 20 mg/kg gavage, once daily for 10 days from day 4
Description: FIG. 8A-C presents data from in vivo efficacy analysis of the human EGF fusion toxins using an experimental lung metastasis NSG mouse model. FIG. 8A presents data from a first animal study for survival curve analysis. NSG mice were IV injected with one million human EGFR^+ HNSCC Cal27 cells on day 0. Mice were injected intraperitoneally (IP) with the EGF fusion toxin or DT390 at 50 μg/kg, once daily for 10 consecutive days starting on day 4 after the tumor cell injection. […] The schedule of the fusion toxin and tumor cell injection is pictured in the schematic below the survival curve. The vertical arrows indicate the days on which the tumor cells or the fusion toxins were injected. *P<0.05; **P<0.01; ***P<0.001; ****P<0.0001. The P-values for the survival curves were calculated using the Mantel-Cox log-rank test (GraphPad Prism9.0).
FIGS. 8B and C present data from a second animal study for a pathology analysis. […] The mice were euthanized on day 10 after tumor cell injection when the first mouse in the DT390 group reached the end point. FIG. 8B presents H&E pictures of lung metastases. Metastases are indicated in the upper panels by black arrowheads. Scale bar: 500 μm. The lower panels are higher magnification pictures of the area in black rectangles in the upper panels. […] Error bars indicate standard deviation (SD).
as §1, §2
The third in vivo efficacy model was an experimental metastasis model. One million of HNSCC Cal27 tumor cells were intravenously injected via the tail vein of NSG mice at day 0. The EGF fusion toxins were injected intraperitoneally (IP) starting on day 4 at 50 μg/kg daily for 10 consecutive days. […] To further assess the effects of the fusion toxins on metastasis, the experimental metastasis study was repeated with a second cohort of NSG mice, and all mice were euthanized 10 days after tumor cell inoculation, when the first mouse in the DT390 group reached the end point. The data are depicted in FIGS. 8B and C.

[4] = system: 14 EGFR+ HNSCC cells lines; assay: Flow cytometry binding, all 14 EGFR+ HNSCC cell lines together; parameters: species or system human; settings: mean over the 14 EGFR+ HNSCC cell lines
NSG mice = assay: In vivo off-target toxicity in NSG mice
Description: FIGS. 12A-C presents representative images of necropsy results for NSG mice treated with mono-EGF-IT or bi-EGF-IT without tumor cell injection. Mice were euthanized on day 13 after the first injection of the fusion toxins. The images show representative gross changes observed in the ear (FIG. 12A), liver (FIG. 12C) and gastrointestinal tract of a representative NSG mouse treated with mono-EGF-IT compared to a representative NSG mouse treated with bi-EGF-IT.
as §2
The main side effects of targeting EGFR are caused by off-target effects, because EGFR is expressed in many healthy tissues, include skin, liver, and gastrointestinal tract (Widakowich et al., (2007), Oncologist, 12, 1443-1455). […] To further assess these toxic effects, another in vivo toxicity study in non-tumor-bearing mice was performed. NSG mice were treated with mono-EGF-IT or bi-EGF-IT, without tumor cell injection.

[5] = non-tumor-bearing NSG mice, 13 days after the first injection

Substance | Median survival time [1] | Median survival time [2] [days] | Median survival time [3] [days] | Kd [4] [nM] | number of metastases in the lungs ([3]; second cohort, euthanized 10 days after tumor cell inoculation) | adverse effects observed in treated mice (NSG mice; mice of the efficacy studies) | general condition and skin (NSG mice; non-tumor-bearing NSG mice) | necropsy, gastrointestinal tract (NSG mice; [5]) | necropsy, liver (NSG mice; [5])
DT390 | 14 days and 13 days | 10 | 8.5 | – | – | – | – | – | –
Mono-EGF IT: DT390 joined by G4S to one human EGF domain, C-terminal 6×His tag; SEQ ID NO: 15 | 14 days | 11 | 32 | 12.2 | reduced compared with the DT390-negative control group | generally unhealthy and lethargic and developed skin rashes | generally unhealthy and lethargic with skin rashes | mildly pale with scant ingesta in the stomach or cecum | diffuse pale livers with moderate reticular patterns
